Data on 15 molecules can be found in ChEMBL document CHEMBL4177664, “Macrocyclic pyrrolobenzodiazepine dimers as antibody-drug conjugate payloads” (Bioorg Med Chem Lett, 2017).

One data set has as its system NCI-H226. The data set is described as follows: Antiproliferative activity against human NCI-H226 cells after 72 hrs by MTS assay. Format: functional, cell-based. The following applies: NCI-H226, 72 h.
Another data set has as its system NCI-N87. In words: Antiproliferative activity against human NCI-N87 cells after 72 hrs by MTS assay. To be noted: NCI-N87, 72 h. In kind it is functional, cell-based.
The next data set relates to OVCAR-3. In words: Antiproliferative activity against human OVCAR3 cells after 72 hrs by MTS assay. To be noted: OVCAR-3, 72 h. Format: functional, cell-based. A general note: Tetrazolium assays rely on reduction of a dye to a coloured formazan, in cell work by metabolically active cells.
Another data set concerns HCT-116. In words: Antiproliferative activity against human HCT116 cells after 72 hrs by MTS assay. In kind it is functional, cell-based. To be noted: HCT-116, 72 h.
The test system of a further data set is HCT-116/VM46. The data set is described as follows: Antiproliferative activity against human HCT116/VM46 cells after 72 hrs by MTS assay. In kind it is functional, cell-based. The following applies: HCT-116/VM46, 72 h.
Data set [1] can be described thus: Stability in rat serum measured up to 24 hrs. In kind it is ADME, cell-free.
A short description of data set [2]: Stability in human serum measured up to 24 hrs. Format: ADME, cell-free.
Data set [3] can be described thus: Stability in mouse serum measured up to 24 hrs. In kind it is ADME, cell-free.
The nature of data set [4]: Aqueous solubility of the compound at pH 5.5. Format: physicochemical. To be noted: aqueous medium.

The IC50 is the point on the concentration scale where inhibition reaches its midpoint. Low values mean greater potency in that assay, high ones weaker potency in that assay. Consider `O=C1c2cc3c(cc2N=C[C@@H]2CCCN12)OCCCOc1cc2c(cc1OCCCCCCCO3)C(=O)N1CCC[C@H]1C=N2`, for which the 50% inhibitory concentration (IC50) in the data set with NCI-H226 was 8.1 nM; with NCI-N87 it was 4.6 nM; in the data set on OVCAR-3 it was 3.4 nM.
Turning to `O=C1c2cc3c(cc2N=C[C@@H]2CCCN12)OCCCOc1cc2c(cc1OCCCCCCCCCO3)C(=O)N1CCC[C@H]1C=N2`, the IC50 was found to be 8.7 nM in the data set with NCI-H226, 8.3 nM in the data set on NCI-N87 and 7.3 nM in the data set with OVCAR-3.
In the case of `O=C1c2cc3c(cc2N=C[C@@H]2CCCN12)OCCCOc1cc2c(cc1OCCCCCCCCCCCCO3)C(=O)N1CCC[C@H]1C=N2`, the IC50 in the data set on NCI-H226 stood at 109 nM; with NCI-N87, 306 nM; with OVCAR-3, 136 nM.
On to `CN1CCN(c2ccc(C3=CN4C(=O)c5cc6c(cc5N=C[C@@H]4C3)OCCCOc3cc4c(cc3OCCCCCCCCO6)C(=O)N3C=C(c5ccc(N)cc5)C[C@H]3C=N4)cc2)CC1`, for which the concentration for half-maximal inhibition (IC50) worked out at 0.024 nM in the data set on NCI-H226; 0.486 nM with NCI-N87; 0.385 nM in the data set on OVCAR-3; 0.016 nM in the data set on HCT-116; 0.015 nM with HCT-116/VM46.
`O=C(CCN1C(=O)C=CC1=O)NCCOCCOCCOCCOCCOCCOCCOCCOCCC(=O)ON1C(=O)CCC1=O`: the Stability result in data set [1], in data set [2] and in [3] was “Unstable” in each case.
`O=C1c2cc3c(cc2N=C[C@@H]2CCCN12)OCCCOc1cc2c(cc1OCCCCCCCCCCO3)C(=O)N1CCC[C@H]1C=N2`: the results for the IC50 in the data set on NCI-H226, with NCI-N87 and with OVCAR-3 were 12 nM, 22 nM and 20 nM, respectively.
What is called solubility is the concentration that dissolves in the medium under given conditions. A low value points to a poorly soluble substance. As to `COc1ccc(C2=CN3C(=O)c4cc5c(cc4N=C[C@@H]3C2)OCCCOc2cc3c(cc2OCCCCCCCCO5)C(=O)N2C=C(c4ccc(OC)cc4)C[C@H]2C=N3)cc1`, the IC50 in the data set with NCI-H226 came out at 0.993 nM; with NCI-N87, 0.621 nM; in the data set with OVCAR-3, 1.82 nM; in the data set with HCT-116, 0.167 nM; in the data set with HCT-116/VM46, 1.05 nM. For the same molecule, the solubility in [4] was < 1 µg/mL.
Consider `O=C1c2cc3c(cc2N=C[C@@H]2CCCN12)OCCCOc1cc2c(cc1OCCCCCCCCCCCO3)C(=O)N1CCC[C@H]1C=N2`, for which the IC50 with NCI-H226 was 69 nM; with NCI-N87, 146 nM; in the data set on OVCAR-3, 78 nM.
In the same order, the values of `O=C1c2cc3c(cc2N=C[C@@H]2CCCN12)OCCCOc1cc2c(cc1OCCCCCCCCO3)C(=O)N1CCC[C@H]1C=N2` are 1.6 nM, 2.7 nM and 1.2 nM.
Take `CN1CCN(c2ccc(C3=CN4C(=O)c5cc6c(cc5N=C[C@@H]4C3)OCCCOc3cc4c(cc3OCCCCCCCCO6)C(=O)N3C=C(c5ccc(N6CCN(C)CC6)cc5)C[C@H]3C=N4)cc2)CC1`: the IC50 with NCI-H226 turned out to be 0.047 nM; in the data set on NCI-N87, 0.034 nM; with OVCAR-3 it was 0.35 nM; with HCT-116, 0.006 nM; with HCT-116/VM46, 0.076 nM. In addition, the solubility in data set [4] was > 698 µg/mL.
`COc1cc2c(cc1OCCCOc1cc3c(cc1OC)C(=O)N1C=C(c4ccccc4)C[C@H]1C=N3)N=C[C@@H]1CC(c3ccccc3)=CN1C2=O`: the results for the IC50 in the data set on NCI-H226, in the data set with NCI-N87 and in the data set with OVCAR-3 were 0.117 nM, 0.152 nM and 0.126 nM, respectively.
With `COc1ccc(C2=CN3C(=O)c4cc5c(cc4N=C[C@@H]3C2)OCCCOc2cc3c(cc2OCCCCCCCCO5)C(=O)N2C=C(c4ccc(N)cc4)C[C@H]2C=N3)cc1`, the IC50 worked out at 0.355 nM in the data set on NCI-H226; 0.559 nM in the data set on NCI-N87; 0.311 nM with OVCAR-3; 0.063 nM in the data set with HCT-116; 0.36 nM in the data set on HCT-116/VM46.
`O=C1c2cc3c(cc2N=C[C@@H]2CC(c4ccccc4)=CN12)OCCCOc1cc2c(cc1OCCOCCOCCO3)C(=O)N1C=C(c3ccccc3)C[C@H]1C=N2`: the IC50 in the data set on NCI-H226 turned out to be 1.07 nM; in the data set with NCI-N87, 1.54 nM; in the data set with OVCAR-3 it was 1.7 nM; in the data set with HCT-116 it was 0.129 nM; with HCT-116/VM46, 6.44 nM. In data set [4], the solubility is < 1 µg/mL.
`CC1=CN2C(=O)c3cc4c(cc3N=C[C@@H]2C1)OCCCOc1cc2c(cc1OCCCCCCCCO4)C(=O)N1C=C(c3ccc(N)cc3)C[C@H]1C=N2`: the IC50 in the data set on NCI-H226 came to 0.655 nM; in the data set with NCI-N87, 1.36 nM; with OVCAR-3, 1.24 nM; with HCT-116 it was 0.135 nM; in the data set on HCT-116/VM46, 1.22 nM.
Consider `COc1cc2c(cc1OCCCOc1cc3c(cc1OC)C(=O)N1CCC[C@H]1C=N3)N=C[C@@H]1CCCN1C2=O` [DSB-120], for which the IC50 is 70 nM in the data set with NCI-H226, 63 nM in the data set on NCI-N87 and 56 nM with OVCAR-3.
